In patent EP2070521A1, “Surface-modified nanoparticles” (Bayer Schering Pharma Aktiengesellschaft, priority 2007, dated 2009) one finds Kp data, which are given here for one compound.

This series can be described thus: in vivo. The following applies: male, NMRI nu/nu, mouse, iv, 8 mg/kg.

The compound `C=CC[C@H]1C(=O)C(C)(C)[C@@H](O)CC(=O)O[C@H](c2ccc3sc(C)nc3c2)C[C@@H]2O[C@]2(C)CCC[C@H](C)[C@@H]1O` [epothilone, (1S,3S,7S, 10R,11S,12S,16R)-7,11-dihydroxy-10-(prop-2-en-1-yl)-3-(2-methyl-benzothiazol-5-yl)-8,8,12,16-tetramethyl-4,17-dioxabicyclo[14.1.0]heptadecane-5,9-dione] had a Kp at 1 h of 16.3, a Kp at 2 h of 29.1 and a Kp at 4 h of 27.7.
